{"source": "patent US20230309520A1", "about": "“AGE-RELATED HEARING LOSS ANIMAL MODEL AND CONSTRUCTION METHOD THEREFOR” (UNIVERSITY INDUSTRY FOUNDATION, YONSEI UNIVERSITY WONJU …, priority 2020, published 2023)", "key": {"SOD": {"test_system": "SOD", "assay": "Superoxide dismutase (SOD) activity test in serum", "type": "in vivo, C57BL/6 mice", "design": "unit not given here", "procedure": "Specifically, the blood was reacted in an anticoagulant tube at 25° C. (room temperature) for 30 minutes, and then centrifuged at 2,000 × g for 15 minutes at 4° C. to prepare purified serum. The purified serum was stored at -80° C. for one month and diluted 1:5 with sample buffer before analysis, and then the amount of SOD in the body was measured using an SOD assay kit (No. 706002, Cayman Che., MI, USA). The SOD assay kit is a kit that uses tetrazolium salt to detect superoxide radicals generated by xanthine oxidase and hypoxanthine. […] The amount of oxidative stress in serum was analyzed by analyzing the SOD activity test result in Experimental Example <1-5>."}, "[1]": {"assay": "Auditory brainstem response test (ABR-TEST), hearing threshold", "type": "in vivo, C57BL/6 mice", "settings": "for hearing threshold: hypoxia", "description": "The wave V reference value of ABR was determined by gradually attenuating the sound intensity in 5 dB steps from 80 dB SPL until the wave V and the noise floor were indistinguishable from the recorded traces. Data management and auditory brainstem response test were conducted using the TDT RZ6/BioSigRZ system (Tucker Davis Technologies, Alachua, FL, USA) in a noise attenuation chamber with a built-in Faraday box.\nElectrodes were disposed on the subcutaneous tissue of each mouse to collect data. […] An isothermal pad was used to maintain the body temperature of the mouse, and the ABR test was conducted every two weeks for stability of the experimental groups."}, "auditory hair cells": {"test_system": "auditory hair cells", "assay": "Hair cell survival and damage by Myo7a immunostaining of cochlear slices", "type": "in vivo, C57BL/6 mice", "settings": "normoxia; single condition", "description": "Specifically, an opening was made at the apex of the cochlear bone of the sacrificed mouse, and phosphate buffered saline at pH 7.4 containing 4% paraformaldehyde as a fixative was perfused at room temperature. The cochlea perfused with a fixative was immersed in Calci-Clear Rapid for 24 hours to demineralize, an OCT (Optimal Cutting Temperature) compound was inserted, and then the cochlea was cut into slices with a thickness of 2 to 5 µm using LEICA RM2145 (Leica Biosystems, Wetzlar, German). The cut cochlea was incubated in standard hematoxylin for 3 minutes and stained with eosin (H&E) for 60 seconds.\nSpecifically, the cochlear slice was fixed on a gelatin-coated slide having a thickness of 5 µm with 4% paraformaldehyde for 15 minutes and then dried at room temperature. The slice was incubated with 5% normal goat serum at room temperature for 1 hour to prevent nonspecific labeling, and incubated with primary antibody MY07A (1:200, ab3481, Abeam, UK) at 4° C. for 1 hour. […]\nThe images of auditory hair cells of all the cochlear slices were analyzed using a confocal microscope (Carl Zeiss Microscopy GmbH, Jena, Germany) and ZEN lite ver.2.3 (ZEN lite, Jena, Germany) software.\nThe survival rate was evaluated by analyzing Myo7a, a major protein present in auditory hair cells."}, "[2]": {"settings": "mouse"}}}
{"smiles": "O=C[C@H](O)[C@@H](O)[C@@H](O)[C@H](O)CO", "note": "[GI, D-galactose]", "values": [{"measurement": "amount of SOD in serum", "setting": "SOD; hypoxia, 0 M", "value": "0.5914 ±0.000"}, {"measurement": "amount of SOD in serum", "setting": "SOD; hypoxia, 1 M", "value": "0.5627 ± 0.005"}, {"measurement": "amount of SOD in serum", "setting": "SOD; hypoxia, 2 M", "value": "0.5463 ± 0.005"}, {"measurement": "amount of SOD in serum", "setting": "SOD; hypoxia, 3 M", "value": "0.5695 ± 0.059"}, {"measurement": "amount of SOD in serum", "setting": "SOD; normoxia, 0 M", "value": "0.5955 ± 0.017"}, {"measurement": "amount of SOD in serum", "setting": "SOD; normoxia, 1 M", "value": "0.5463 ± 0.005"}, {"measurement": "amount of SOD in serum", "setting": "SOD; normoxia, 2 M", "value": "0.5216 ± 0.005"}, {"measurement": "amount of SOD in serum", "setting": "SOD; normoxia, 3 M", "value": "0.5148 ± 0.028"}, {"measurement": "hearing threshold", "setting": "[1]; 8, 16, 24 kHz analysis, initial value (increased from)", "value": 30, "unit": "dB"}, {"measurement": "hearing threshold", "setting": "[1]; 8, 16, 24 kHz analysis, value after 1 month (increased to)", "value": 60, "unit": "dB"}, {"measurement": "hearing threshold", "setting": "[1]; 8 kHz, final value (increased to), 3 months", "value": "67 + 10.13 dB"}, {"measurement": "hearing threshold", "setting": "[1]; 8 kHz, initial value (increased from)", "value": "34 + 3.76 dB"}, {"measurement": "hearing threshold", "setting": "[1]; 16 kHz, final value (increased to), 3 months", "value": "60 + 7.33 dB"}, {"measurement": "hearing threshold", "setting": "[1]; 16 kHz, initial value (increased from)", "value": "38 + 4.08 dB"}, {"measurement": "change in hearing threshold compared to control group", "setting": "[1]; normoxia, 8, 16, and 24 kHz", "value": "do not change significantly"}, {"measurement": "change in the hearing threshold", "setting": "[1]; normoxia, 8 kHz", "value": "no significant change"}, {"measurement": "changes in the hearing thresholds", "setting": "[1]; normoxia, frequencies of 4 to 32 kHz, 3 months", "value": "no significant changes"}, {"measurement": "damage to hair cells", "setting": "auditory hair cells", "value": "almost no damage to cells"}, {"measurement": "Dermis Thickness", "setting": "[2]", "value": "348.5 ±85.9"}]}
